The values below come from patent publication US20260256919A1, “BIOENHANCERS” (priority 2022, published 2026).

Where two headings read alike, the source gives them in different places. A value given as a limit tells only on which side of the number the result lay.

One series concerns the target T1, CYP2B6 (Homo sapiens, UniProt P20813).
T1 sequence (P20813 1-491): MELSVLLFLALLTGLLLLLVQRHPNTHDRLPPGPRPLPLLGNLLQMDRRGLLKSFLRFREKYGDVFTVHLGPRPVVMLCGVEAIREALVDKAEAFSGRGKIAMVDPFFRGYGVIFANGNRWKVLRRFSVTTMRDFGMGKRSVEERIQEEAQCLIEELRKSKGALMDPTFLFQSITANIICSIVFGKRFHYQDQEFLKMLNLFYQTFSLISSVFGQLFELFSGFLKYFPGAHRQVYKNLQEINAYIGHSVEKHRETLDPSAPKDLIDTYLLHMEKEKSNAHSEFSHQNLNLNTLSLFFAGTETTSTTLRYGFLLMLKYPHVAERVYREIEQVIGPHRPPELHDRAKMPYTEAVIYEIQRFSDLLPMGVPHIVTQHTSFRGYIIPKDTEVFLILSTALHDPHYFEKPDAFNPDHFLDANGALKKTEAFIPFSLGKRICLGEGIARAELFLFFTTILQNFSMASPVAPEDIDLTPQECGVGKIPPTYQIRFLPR
The note with it: microsomes.

A further series concerns the target T2, CYP1A2 (Homo sapiens, UniProt P05177).
T2 sequence (P05177 1-516): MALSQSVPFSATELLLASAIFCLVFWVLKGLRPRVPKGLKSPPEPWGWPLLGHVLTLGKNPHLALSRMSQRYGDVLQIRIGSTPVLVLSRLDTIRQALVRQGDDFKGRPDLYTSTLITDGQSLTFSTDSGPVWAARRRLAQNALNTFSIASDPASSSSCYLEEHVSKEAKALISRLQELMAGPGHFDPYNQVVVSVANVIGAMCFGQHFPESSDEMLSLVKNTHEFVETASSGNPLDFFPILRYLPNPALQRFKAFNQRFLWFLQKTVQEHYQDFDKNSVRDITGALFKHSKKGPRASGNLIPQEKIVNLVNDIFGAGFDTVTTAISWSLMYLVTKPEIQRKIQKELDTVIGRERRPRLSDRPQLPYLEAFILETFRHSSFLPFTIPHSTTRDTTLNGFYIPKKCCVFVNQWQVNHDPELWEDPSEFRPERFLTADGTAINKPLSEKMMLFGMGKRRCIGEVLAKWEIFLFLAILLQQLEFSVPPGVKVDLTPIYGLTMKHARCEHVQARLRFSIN
The conditions noted are these: microsomes; for CYP1A2 activity expressed as % Vehicle Control: human, 10 min, pH 7.4.

Series [1] concerns CYP3A4/5. In words: in vitro. The conditions noted are these: human, microsomes, pH 7.4.
For series [2], the system named is CYP3A4/5. As to the kind of experiment: Direct CYP3A4/5 inhibition, midazolam 1′-hydroxylation in pooled human liver microsomes. The conditions noted are these: pH 7.4, probe midazolam 2 μM (1′-hydroxylation). (In general: Liver microsomes are vesicles of endoplasmic reticulum, rich in cytochrome P450 enzymes.)
A further series deals with T3, CYP2C8 (Homo sapiens, UniProt P10632).
T3 sequence (P10632 1-490): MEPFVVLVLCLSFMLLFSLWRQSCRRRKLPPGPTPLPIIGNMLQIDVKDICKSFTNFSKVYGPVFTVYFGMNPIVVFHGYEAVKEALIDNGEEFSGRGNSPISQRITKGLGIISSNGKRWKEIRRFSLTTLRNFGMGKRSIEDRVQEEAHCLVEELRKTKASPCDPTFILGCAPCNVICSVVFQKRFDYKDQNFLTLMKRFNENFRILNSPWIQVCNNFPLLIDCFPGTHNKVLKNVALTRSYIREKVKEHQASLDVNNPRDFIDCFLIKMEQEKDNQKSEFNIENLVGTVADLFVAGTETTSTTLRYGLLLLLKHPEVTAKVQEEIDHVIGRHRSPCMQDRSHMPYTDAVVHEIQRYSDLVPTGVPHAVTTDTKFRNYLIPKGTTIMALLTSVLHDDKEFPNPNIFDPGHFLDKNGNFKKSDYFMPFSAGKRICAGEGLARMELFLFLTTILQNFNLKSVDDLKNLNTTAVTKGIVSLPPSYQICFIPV
The note with it: microsomes; for CYP2C8 activity expressed as % Vehicle Control: human, 10 min, pH 7.4.

The next series addresses CYP2C9 (Homo sapiens, UniProt P11712). The note with it: for CYP2C9 activity expressed as % Vehicle Control: HLM, diclofenac.
For the next series, the target named is CYP2C19 (Homo sapiens, UniProt P33261). The conditions noted are these: microsomes.
Sequence of CYP2C19 (P33261 whole entry): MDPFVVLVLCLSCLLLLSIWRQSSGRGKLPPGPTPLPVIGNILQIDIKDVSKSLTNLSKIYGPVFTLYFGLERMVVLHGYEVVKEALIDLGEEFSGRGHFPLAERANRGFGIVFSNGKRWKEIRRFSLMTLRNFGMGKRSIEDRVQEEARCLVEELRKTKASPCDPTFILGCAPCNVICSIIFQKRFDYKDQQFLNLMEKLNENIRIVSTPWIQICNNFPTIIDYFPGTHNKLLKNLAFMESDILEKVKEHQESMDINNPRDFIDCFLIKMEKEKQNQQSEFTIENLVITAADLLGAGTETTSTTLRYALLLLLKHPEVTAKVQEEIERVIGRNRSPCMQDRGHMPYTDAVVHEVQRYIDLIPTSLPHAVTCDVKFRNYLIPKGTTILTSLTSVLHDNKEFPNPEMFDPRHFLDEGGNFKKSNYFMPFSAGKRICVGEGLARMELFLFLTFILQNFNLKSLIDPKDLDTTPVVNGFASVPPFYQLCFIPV
For another series, the target named is CYP2D6 (Homo sapiens, UniProt P10635). The conditions noted are these: microsomes.
Sequence of CYP2D6 (P10635 whole entry): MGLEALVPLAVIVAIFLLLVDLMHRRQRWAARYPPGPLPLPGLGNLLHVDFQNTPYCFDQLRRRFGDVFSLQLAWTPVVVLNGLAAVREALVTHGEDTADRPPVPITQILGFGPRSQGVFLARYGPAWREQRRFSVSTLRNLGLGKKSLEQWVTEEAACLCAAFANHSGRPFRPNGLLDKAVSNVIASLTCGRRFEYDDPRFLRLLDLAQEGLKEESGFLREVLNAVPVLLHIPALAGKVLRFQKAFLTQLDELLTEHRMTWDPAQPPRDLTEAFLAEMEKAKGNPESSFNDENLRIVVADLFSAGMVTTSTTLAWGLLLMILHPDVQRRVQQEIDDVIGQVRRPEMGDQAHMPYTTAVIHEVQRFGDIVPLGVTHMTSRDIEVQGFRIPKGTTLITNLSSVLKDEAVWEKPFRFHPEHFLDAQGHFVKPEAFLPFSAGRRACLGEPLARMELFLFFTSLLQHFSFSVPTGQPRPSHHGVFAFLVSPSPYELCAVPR
The test system of series [3] is CYP3A4/5. The note with it: microsomes.
The subject of series [4] is CYP3A4/5. The conditions noted are these: microsomes. The source holds these as a separate data set.
For series [5] the following is noted: in vivo, 5 mg.

Sequence of CYP2C9 (P11712 whole entry): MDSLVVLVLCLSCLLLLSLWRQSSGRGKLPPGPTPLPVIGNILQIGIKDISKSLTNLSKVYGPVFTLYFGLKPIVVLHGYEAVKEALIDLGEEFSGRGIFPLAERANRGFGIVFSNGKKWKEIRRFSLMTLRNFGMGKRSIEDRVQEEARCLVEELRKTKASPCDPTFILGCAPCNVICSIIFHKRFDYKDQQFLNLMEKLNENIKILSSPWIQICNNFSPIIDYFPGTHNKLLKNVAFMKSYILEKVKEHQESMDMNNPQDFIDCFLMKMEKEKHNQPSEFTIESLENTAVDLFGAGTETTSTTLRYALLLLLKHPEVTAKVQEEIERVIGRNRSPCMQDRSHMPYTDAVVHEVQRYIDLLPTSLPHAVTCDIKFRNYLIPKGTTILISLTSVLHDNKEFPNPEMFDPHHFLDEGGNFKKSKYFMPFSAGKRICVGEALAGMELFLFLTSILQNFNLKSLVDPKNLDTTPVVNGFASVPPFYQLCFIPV

As for `N[C@@H]1C[C@H]1c1ccccc1` (racemic) [Tranylcypromine, reference compound], at CYP2B6, the midpoint of inhibition, the IC50, lay at 3400 nM.

Regarding `Cc1nc2c([nH]1)c(=O)n(C)c(=O)n2Cc1ccco1` [Furafylline], the “CYP1A2 activity expressed as % Vehicle Control” value on CYP1A2 (0.01 μM) was 103.9 % Vehicle Control; on CYP1A2 (0.1 μM), 110.2 % Vehicle Control; on CYP1A2 (1 μM) it was 88.5 % Vehicle Control; on CYP1A2 (10 μM), 41.0 % Vehicle Control; on CYP1A2 (100 μM) it was 10.1 % Vehicle Control.

Consider `CCC(C)n1ncn(-c2ccc(N3CCN(c4ccc(OCC5COC(Cn6cncn6)(c6ccc(Cl)cc6Cl)O5)cc4)CC3)cc2)c1=O` (stereo not drawn) [Itraconazole], for which half-maximal inhibition in the series on CYP3A4/5 [1] (IC50) was put at 30 nM. For the same compound, half-maximal inhibition in the series with CYP3A4/5 [2] (IC50 at 5 min) required 210 nM.

Regarding `CC(C)(O)c1ccccc1CC[C@@H](SCC1(CC(=O)O)CC1)c1cccc(/C=C/c2ccc3ccc(Cl)cc3n2)c1` [Montelukast, reference compound], the “CYP2C8 activity expressed as % Vehicle Control” value at CYP2C8 (0.001 μM) stood at 96.0 % Vehicle Control; on CYP2C8 (0.01 μM), 91.3 % Vehicle Control; on CYP2C8 (0.1 μM), 66.2 % Vehicle Control; at CYP2C8 (1 μM), 13.3 % Vehicle Control; at CYP2C8 (10 μM), 1.3 % Vehicle Control.

For the compound `Nc1ccc(S(=O)(=O)Nc2ccnn2-c2ccccc2)cc1` [Sulfaphenazole, reference compound], the “CYP2C9 activity expressed as % Vehicle Control” value on CYP2C9 (positive control 0.0025 μM) worked out at 102.1 % Vehicle Control; on CYP2C9 (positive control 0.025 μM), 95.7 % Vehicle Control; at CYP2C9 (positive control 0.25 μM) it was 47.2 % Vehicle Control; on CYP2C9 (positive control 2.5 μM), 10.1 % Vehicle Control; on CYP2C9 (positive control 25 μM), 1.9 % Vehicle Control.

On to phenylcapsaicyn, for which the values for the inhibitory constant (Ki) at CYP1A2 and at CYP2D6 were 340 nM and 550 nM, respectively. The half-maximal inhibitory concentration (IC50) against CYP2B6, against CYP2C8, against CYP2C9 (microsomes), against CYP2C19, in the series with CYP3A4/5 [3] and with CYP3A4/5 [4] was > 50000 nM in each case. For the same compound, the “Inhibition of CYP2B6 in words” value at CYP2B6 is “no significant inhibition”. For the same compound, the “Inhibition of CYP2C8 in words” value at CYP2C8 is recorded as “no significant inhibition”. Also, the “Inhibition of CYP2C9 in words” value at CYP2C9 (microsomes) is on record as “no significant inhibition”. The “Inhibition of CYP2C19 in words” value on CYP2C19 is reported as “no significant inhibition”. Moreover, in the series on CYP3A4/5 [3], the “Inhibition of CYP3A4/5 in words (midazolam)” value is reported as “no significant inhibition”. For the same compound, the “Inhibition of CYP3A4/5 in words (testosterone)” value in the series on CYP3A4/5 [4] was “no significant inhibition”. The Cmax (as a rule, the peak of the concentration-time curve) in series [5] was ~600 nM.
